Source: patent US10683279B2, “Apoptosis signal-regulating kinase 1 inhibitors and methods of use thereof” (Enanta Pharmaceuticals, Inc., priority 2017, dated 2020)
pIC50: −log10 of the molar value.

Target: ASK1 (Homo sapiens (Human), UniProt Q99683)
Assay: ASK1 kinase inhibition, HTRF KinEASE Assay System (TR-FRET)
Assay type: biochemical
Details: 5 nM ASK1 kinase, 1 uM STK3 peptide substrate, 100 uM ATP, 3 hours
Method: The ability (IC50) of compounds to inhibit ASK1 kinase activity was determined by HTRF® KinEASE™ Assay System.
ASK1 was purchased from Thermofisher (Catalogue # PV401.1), ATP was purchased from Sigma (Catalogue # A7699), HTRF® KinEASE™ Assay System was obtained from Cisbio (Bedford, Mass). ½ Area plate was purchased from Perkin Elmer (Catalogue # #6005560). HTRF® KinEASE™-STK is a generic method for measuring serine/threonine kinase activities using a time-resolved fluorescence resonance energy transfer (TR-FRET) immunoassay. The IC50 value for each compound was determined in the presence of compound (various concentration from 0 to 10 μM) and a fixed amount of ATP and peptide substrates. The test compound, luM STK3 peptide substrate, and 5 nM of ASK1 kinase are incubated with kinase reaction buffer containing 50 mM HEPES pH 7.5, 0.01% BRIJ-35, 10 mM MgCl2, and 1 mM EGTA for 30 minutes. 100 uM ATP is added to start kinase reaction and incubated for 3 hours. The STK3-antibody labeled with Eu^3+-Cryptate and 125 nM streptavidin-XL665 are mixed in a single addition with stop reagents provided by the Cisbio kit used to stop the kinase reaction. Fluorescence is detected using an Envision Multilabeled 2014 reader from PerkinElmer. The Fluorescence is measured at 615 nm (Cryptate) and 665 nm (XL665) and a ratio of 665 nm/615 nm is calculated for each well. The resulting TR-FRET is proportional to the phosphorylation level. Staurosporine was used as the positive control. IC50 was determined by XLfit 5.3.
By using above method, the inhibition of ASK1 was tested for the compound of formula (I). IC50 ranges are as follows: A<1 nM; 1 nM<B<10 nM; 10 nM<C<100 nM; 100 nM<D

Sequence of ASK1 (Q99683 whole entry): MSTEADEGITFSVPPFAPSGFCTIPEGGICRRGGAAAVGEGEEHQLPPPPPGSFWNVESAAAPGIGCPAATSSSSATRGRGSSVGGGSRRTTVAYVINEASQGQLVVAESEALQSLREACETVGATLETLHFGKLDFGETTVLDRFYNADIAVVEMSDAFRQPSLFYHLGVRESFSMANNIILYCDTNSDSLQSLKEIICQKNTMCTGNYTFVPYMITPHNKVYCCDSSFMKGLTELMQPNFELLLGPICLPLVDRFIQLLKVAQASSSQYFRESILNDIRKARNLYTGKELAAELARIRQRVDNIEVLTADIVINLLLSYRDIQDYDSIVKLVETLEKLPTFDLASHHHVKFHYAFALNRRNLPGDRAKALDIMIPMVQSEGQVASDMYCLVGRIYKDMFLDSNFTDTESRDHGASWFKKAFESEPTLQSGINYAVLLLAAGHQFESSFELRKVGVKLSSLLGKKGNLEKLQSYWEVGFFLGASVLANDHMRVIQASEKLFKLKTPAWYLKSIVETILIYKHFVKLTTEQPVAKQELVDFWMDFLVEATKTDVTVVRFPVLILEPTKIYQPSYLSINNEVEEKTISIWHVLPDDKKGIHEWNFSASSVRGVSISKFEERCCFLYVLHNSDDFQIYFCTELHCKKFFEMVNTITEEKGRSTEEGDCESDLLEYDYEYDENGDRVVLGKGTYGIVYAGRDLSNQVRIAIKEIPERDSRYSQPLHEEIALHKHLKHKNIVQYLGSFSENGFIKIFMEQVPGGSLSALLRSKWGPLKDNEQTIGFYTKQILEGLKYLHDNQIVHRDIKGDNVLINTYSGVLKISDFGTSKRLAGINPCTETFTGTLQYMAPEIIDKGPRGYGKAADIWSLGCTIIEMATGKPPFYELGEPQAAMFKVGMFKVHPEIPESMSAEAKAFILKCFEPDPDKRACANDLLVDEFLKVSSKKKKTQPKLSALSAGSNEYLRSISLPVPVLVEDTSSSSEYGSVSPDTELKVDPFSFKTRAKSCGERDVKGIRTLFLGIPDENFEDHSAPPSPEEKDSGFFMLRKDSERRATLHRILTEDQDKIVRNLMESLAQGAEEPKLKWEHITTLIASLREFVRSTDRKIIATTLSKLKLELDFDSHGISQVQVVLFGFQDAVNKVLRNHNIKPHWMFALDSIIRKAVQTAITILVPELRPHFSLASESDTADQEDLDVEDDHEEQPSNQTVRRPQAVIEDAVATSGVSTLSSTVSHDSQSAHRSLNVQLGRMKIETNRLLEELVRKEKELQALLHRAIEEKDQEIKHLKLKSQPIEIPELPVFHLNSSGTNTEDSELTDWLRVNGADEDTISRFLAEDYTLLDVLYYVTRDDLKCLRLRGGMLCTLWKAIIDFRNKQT

SMILES | pIC50
C[C@H](CO)n1nnnc1-c1cccc(NC(=O)c2cc(-n3cnc(C4CC4)c3)c(C(F)F)cc2F)n1 [Example 32a] | 8.00 to 9.00
C[C@H](CO)n1nnnc1-c1cccc(NC(=O)c2cc(-n3cnc(C4CC4)c3)c(CO)cc2F)n1 [Example 33a, (R)-5-(4-cyclopropyl-1H-imidazol-1-yl)-2-fluoro-4-(hydroxymethyl)-N-(6-(1-(1-hydroxypropan-2-yl)-1H-tetrazol-5-yl)pyridin-2-yl)benzamide] | 8.00 to 9.00
Cc1cc(F)c(C(=O)Nc2cccc(-c3nnnn3C(C)C)c2)cc1-n1cnc(C2CC2)c1 [Example 35a] | 7.00 to 8.00
CC(C)n1nnnc1-c1cccc(NC(=O)c2cc(-n3cnc(C4CC4)c3)c(C(F)(F)F)cc2F)n1 [Example 37a] | 8.00 to 9.00
CC(C)n1nnnc1-c1cccc(NC(=O)c2cc(-n3cnc(C4CC4)c3)c(F)cn2)n1 [Example 39a] | 8.00 to 9.00
CC(C)n1nnnc1-c1cccc(NC(=O)c2cc(-n3cnc(C4CC4)c3)c(N3CCCCC3)cn2)n1 [Example 40a] | 7.00 to 8.00
CC(C)n1nnnc1-c1nc(NC(=O)c2cc(-n3cnc(C4CC4)c3)c(N3CCCCC3)cn2)cs1 [Example 41a] | 7.00 to 8.00
CC(C)n1nnnc1-c1cccc(NC(=O)c2cc(-n3cnc(C4CC4)c3)c(N3CCCC3)cn2)n1 [Example 43a] | 8.00 to 9.00
CC(C)n1nnnc1-c1nc(NC(=O)c2cc(-n3cnc(C4CC4)c3)c(N3CCN(C)CC3)cn2)cs1 [Example 44a] | 8.00 to 9.00
CC(C)n1nnnc1-c1nc(NC(=O)c2cc(-n3cnc(C4CC4)c3)c(N3CCOCC3)cn2)cs1 [Example 45a] | 8.00 to 9.00
CC(C)n1nnnc1-c1cccc(NC(=O)c2cc(-n3cnc(C4CC4)c3)c(N3CCN(C)CC3)cn2)n1 [Example 47a] | 8.00 to 9.00
Cc1cnc(C(=O)Nc2cccc(-c3nnnn3C(C)C)n2)cc1-n1cnc(C2CC2)c1 [Example 48a] | 7.00 to 8.00
Cc1cnc(C(=O)Nc2cccc(-c3nnnn3[C@H](C)CO)n2)cc1-n1cnc(C2CC2)c1 [Example 49a] | 8.00 to 9.00
Cc1cnc(C(=O)Nc2cccc(-c3nnnn3C(C)C)n2)cc1-n1cnc(C(F)(F)F)c1 [Example 50a] | 8.00 to 9.00
Cc1cnc(C(=O)Nc2cccc(-c3nnnn3[C@H](C)CO)n2)cc1-n1cnc(C(C)(C)C)c1 [Example 53a] | 8.00 to 9.00
CC(C)n1nnnc1-c1nc(NC(=O)c2cc(-n3cnc(C4CC4)c3)c(C(F)F)cn2)cs1 [Example 56a] | 8.00 to 9.00
CC(C)n1nnnc1-c1nc(NC(=O)c2cc(-n3cnc(C4CC4)c3)c(C(F)(F)F)cn2)cs1 [Example 59a] | 8.00 to 9.00
COc1cc(C)c(-n2cnc(C3CC3)c2)cc1C(=O)Nc1cccc(-c2nnnn2C(C)C)n1 [Example 60a] | 8.00 to 9.00
COc1cc(C)c(-n2cnc(C3CC3)c2)cc1C(=O)Nc1cccc(-c2nnnn2[C@H](C)CO)n1 [Example 61a] | 8.00 to 9.00

Now from value to compound:

pIC50 | SMILES
7.00 to 8.00 | Cc1cc(F)c(C(=O)Nc2ccnc(-c3nnnn3C(C)C)n2)cc1-n1cnc(C2CC2)c1 [Example 34a]
8.00 to 9.00 | CC(C)n1nnnc1-c1nc(NC(=O)c2cc(-n3cnc(C4CC4)c3)c(F)cn2)cs1 [Example 38a]
8.00 to 9.00 | CC(C)n1nnnc1-c1nc(NC(=O)c2cc(-n3cnc(C4CC4)c3)c(N3CCCC3)cn2)cs1 [Example 42a]
8.00 to 9.00 | CC(C)n1nnnc1-c1cccc(NC(=O)c2cc(-n3cnc(C4CC4)c3)c(N3CCOCC3)cn2)n1 [Example 46a]
8.00 to 9.00 | Cc1cnc(C(=O)Nc2cccc(-c3nnnn3[C@H](C)CO)n2)cc1-n1cnc(C(F)(F)F)c1 [Example 51a]
8.00 to 9.00 | Cc1cnc(C(=O)Nc2cccc(-c3nnnn3C(C)C)n2)cc1-n1cnc(C(C)(C)C)c1 [Example 52a]
8.00 to 9.00 | CC(C)n1nnnc1-c1cccc(NC(=O)c2cc(-n3cnc(C4CC4)c3)c(C(F)F)cn2)n1 [Example 54a]
8.00 to 9.00 | C[C@H](CO)n1nnnc1-c1cccc(NC(=O)c2cc(-n3cnc(C4CC4)c3)c(C(F)F)cn2)n1 [Example 55a]
8.00 to 9.00 | CC(C)n1nnnc1-c1cccc(NC(=O)c2cc(-n3cnc(C4CC4)c3)c(C(F)(F)F)cn2)n1 [Example 57a]
8.00 to 9.00 | C[C@H](CO)n1nnnc1-c1cccc(NC(=O)c2cc(-n3cnc(C4CC4)c3)c(C(F)(F)F)cn2)n1 [Example 58a]
